Assays:
[1] = test system: MDA-MB-231 breast tumor xenografts; experiment: Survival signals in MDA-MB-231 breast tumor xenografts after Abraxane (Western blotting, immunohistochemistry); assay type: in vivo, mice
Procedure: […] Tumor lysates were analyzed for VEGF expression and pro-survival signals (p42 & p44 kinase, p-NF-κB p50, p-Akt, bcl-2) using Western blotting. Expression of bcl-2 was further analyzed by immunohistochemistry.

[2] = test system: imatinib-resistant gastrointestinal stromal tumor; details: addition of perifosine to imatinib, patients; cited from earlier work
[3] = test system: second or third-line metastatic colon cancer; details: perifosine in combination with capecitabine, patients with advanced; cited from earlier work
[4] = test system: metastatic or advanced renal cell carcinoma; details: progressing after prior therapy with a VEGF receptor inhibitor; cited from earlier work

In the case of `CC(=O)O[C@H]1C(=O)[C@@]2(C)[C@H]([C@H](OC(=O)c3ccccc3)[C@]3(O)C[C@H](OC(=O)[C@H](O)[C@@H](NC(=O)c4ccccc4)c4ccccc4)C(C)=C1C3(C)C)[C@]1(OC(C)=O)CO[C@@H]1C[C@@H]2O` [paclitaxel], the “bcl-2 expression in tumors” value ([1]; surviving MDA-MB-231 tumors, SCID mice, Abraxane 10 to 30 mg/kg IV qdx5, Western blotting and immunohistochemistry) is reported as “Significant increases” and the “inflammatory cytokines in tumors” value ([1]; tumors extracted immediately after therapy, Western blotting and immunohistochemistry) is reported as “Significant increases”.

For `CCCCCCCCCCCCCCCCCCOP(=O)([O-])OC1CC[N+](C)(C)CC1` [perifosine], the “activity in imatinib-refractory gastrointestinal stromal tumor” value [2] is given as “minimal activity”, the “median time to progression over capecitabine alone” value [3] is given as “more than doubled” and the “clinical outcome in renal cell carcinoma” value [4] is given as “clinical benefits”.
